Source: patent US4569907A, “Thiopeptolide substrates for vertebrate collagenase” (Monsanto Company, priority 1984, dated 1986)
pIC50: −log10 of the molar value. Non-standard residues stand in square brackets, D forms with d. Residues, ends and D or L forms follow the SMILES beside them. *: point of attachment. Dnp = O=[N+]([O-])c1ccc(*)c([N+](=O)[O-])c1

What was measured:
Type in all cases: biochemical
[1] = molecular target: T1, collagenase (Homo sapiens, UniProt P03956); assay: HPLC assay of substrate hydrolysis by collagenase (comparison substrates without chromophores); conditions: Table I Comparison of Substrate; assayed by HPLC
T1 construct: endogenous in cells; host or cells: normal human skin fibroblasts (culture media)
T1 sequence (P03956 100-469): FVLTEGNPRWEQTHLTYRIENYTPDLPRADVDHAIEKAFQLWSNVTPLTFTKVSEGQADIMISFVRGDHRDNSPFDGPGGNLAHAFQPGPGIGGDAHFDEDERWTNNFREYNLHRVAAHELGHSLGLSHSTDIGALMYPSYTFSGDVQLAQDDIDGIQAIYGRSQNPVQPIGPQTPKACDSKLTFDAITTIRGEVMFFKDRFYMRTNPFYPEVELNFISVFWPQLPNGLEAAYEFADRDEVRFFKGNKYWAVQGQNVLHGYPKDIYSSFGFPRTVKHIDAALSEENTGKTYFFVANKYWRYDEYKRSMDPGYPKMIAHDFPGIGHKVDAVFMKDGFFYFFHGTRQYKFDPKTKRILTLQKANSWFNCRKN
Protocol: (§1) The following Table I sets forth the relative rates of hydrolysis in the above spectrophotometric assay using ther above thiopeptolides as substrates in comparison to the rates of hydrolysis assayed by High Performance Liquid Chromatography (HPLC) of two commercially available substrates for collagenase and two other substrates described in copending application Ser. No. 450,318, cited hereinbefore.

[2] = molecular target: T2, Collagenase from culture media of normal human skin fibroblasts (Homo sapiens, UniProt P03956); assay: Spectrophotometric assay for collagenase: hydrolysis of thiopeptolide substrates with 4,4'-dithiodipyridine or Ellman's reagent; conditions: for Relative Rate (of hydrolysis): Table I Comparison of Substrate, spectrophotometric assay, pH 6.5-7.0, initial rates
T2 construct: endogenous in cells; host or cells: normal human skin fibroblasts (culture media)
T2 sequence (P03956 100-469): T1 sequence (P03956 100-469)
Protocol: Collagenase was prepared from culture media of normal human skin fibroblasts substantially according to the procedure of Stricklin et al., Biochem. 16 1607 (1977). The enzyme (23 μg/ml in 0.5 M tris buffer [tris(hydroxymethyl) amino methane], 0.01 M CaCl2, pH 7.5) was activated by incubating 10 μl samples with one μl of trypsin (10 mg/ml in 1 mM HCl) for twenty minutes at room temperature followed by addition of 20 μl of soybean trypsin inhibitor (5 mg/ml in 0.05 M tris buffer, 0.01 M CaCl2, pH 7.5).
The activated enzyme was diluted 100 to 2000 fold for use with each of the following substrate thiopeptolides:
(§2) The spectrophotometric assay was carried out at substrate concentrations of from 0.01 mM to 5 mM in 0.05 M HEPES buffer (N-2-hydroxyethylpiperizine-N'-2-ethanesulfonic acid) with 0.01 M CaCl2 at a pH of 6.5-7.0 and containing 0.5 mM to 1.0 mM 4,4'-dithiodipyridine (or Ellman's Reagent). The total reaction volume was 250 μl including 10 to 100 μl of the diluted activated enzyme. The reaction solutions were placed in 10 mm pathlength, self-masking microcuvettes and the hydrolysis followed using a Gilford model 250 spectrophotometer at 324 λ(410 λ for Ellman's Reagent) and equipped with a Gilford model 6051 recorder. The initial rates were limited to the first 5% of reaction and were corrected for non-enzymatic hydrolysis, which never exceeded 25% of the total reaction at pH 6.5-7.0. The 4,4'dithiodipyridine (or Ellman's Reagent) at 0.5 mM was in large excess under the initial rate assay conditions and was not rate limiting.
as §1

[3] = molecular target: T3, Carboxypeptidase Y (Saccharomyces cerevisiae, UniProt P00729); assay: Enzyme selectivity for thiopeptolide, spectrophotometric hydrolysis; conditions: Table II Enzyme Selectivity
T3 sequence (P00729 112-532): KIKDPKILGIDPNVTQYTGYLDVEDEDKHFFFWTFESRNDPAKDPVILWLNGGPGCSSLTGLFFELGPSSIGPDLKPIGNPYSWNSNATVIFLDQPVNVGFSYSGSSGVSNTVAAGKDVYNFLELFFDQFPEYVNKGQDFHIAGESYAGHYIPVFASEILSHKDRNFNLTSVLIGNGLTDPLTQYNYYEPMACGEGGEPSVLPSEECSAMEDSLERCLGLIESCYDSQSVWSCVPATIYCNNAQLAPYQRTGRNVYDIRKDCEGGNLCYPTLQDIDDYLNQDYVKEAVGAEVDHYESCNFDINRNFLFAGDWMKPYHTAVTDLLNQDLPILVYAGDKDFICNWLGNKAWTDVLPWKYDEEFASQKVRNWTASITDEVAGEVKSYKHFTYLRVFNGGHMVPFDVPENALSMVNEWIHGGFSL
Protocol: as §2
(§3) The ability of five proteolytic enzymes other than collagenase to cleave the synthetic substrate Ac-Pro-Leu-Gly-S-Leu-Leu-Gly-OC2 H5 was tested by hydrolysis and following spectrophotometrically as in Example 14. The following Table II sets forth the relative selectivity of these enzymes in comparison to vertebrate collagenase.

[4] = tested on: Kallikrein; assay: as above; conditions: Table II Enzyme Selectivity
Protocol: as §2, §3

[5] = tested on: Elastase; assay: as above; conditions: Table II Enzyme Selectivity
Protocol: as §2, §3

[6] = molecular target: T4, Trypsin (Bos taurus, UniProt P00760); assay: as above; conditions: Table II Enzyme Selectivity
T4 sequence (P00760 24-246): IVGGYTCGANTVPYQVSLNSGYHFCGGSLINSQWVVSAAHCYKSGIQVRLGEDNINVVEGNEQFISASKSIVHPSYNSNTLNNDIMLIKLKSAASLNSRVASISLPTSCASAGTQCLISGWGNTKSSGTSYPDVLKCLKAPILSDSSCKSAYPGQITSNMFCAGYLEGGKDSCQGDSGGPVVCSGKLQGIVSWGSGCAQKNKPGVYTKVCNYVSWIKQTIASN
Protocol: as §2, §3

[7] = molecular target: α-Chymotrypsin (Bos taurus, UniProt P00766); assay: as above; conditions: Table II Enzyme Selectivity
Protocol: as §2, §3

[8] = molecular target: T5, vertebrate collagenase (Homo sapiens, UniProt P03956); assay: Inhibition of vertebrate collagenase (I50, median inhibitory concentration)
T5 sequence (P03956 100-469): T1 sequence (P03956 100-469)

Compound	Relative Rate (of hydrolysis) [1]	Relative Rate (of hydrolysis) [2]	further results
CCOC(=O)CNC(=O)[C@H](CC(C)C)NC(=O)[C@H](CC(C)C)NC(=O)CNC(=O)[C@H](CC(C)C)NC(=O)[C@@H]1CCCN1C(C)=O [Ac--Pro--Leu--Gly--Leu--Leu--Gly--OC2 H5] (Ac-PLGLLG-OEt)	250		
DNP-Pro-Leu-Gly-Ile-Ala-Gly-Arg-NH2 (Dnp-PLGIAGR-NH2; SMILES CC[C@H](C)[C@H](NC(=O)CNC(=O)[C@H](CC(C)C)NC(=O)[C@@H]1CCCN1c1ccc([N+](=O)[O-])cc1[N+](=O)[O-])C(=O)N[C@@H](C)C(=O)NCC(=O)N[C@@H](CCCNC(=N)N)C(N)=O) [commercially available synthetic collagenase substrate, Peninsula Laboratories; DNP=Dinitrophenyl]	25		
CCOC(=O)CNC(=O)[C@H](C)NC(=O)[C@H](CC(C)C)SC(=O)CNC(=O)[C@H](C)NC(=O)[C@@H]1CCCN1C(C)=O [Ac-Pro-Ala-Gly-S-Leu-Ala-Gly-OC2 H5]		950	
DNP-Pro-Gln-Gly-Ile-Ala-Gly-Gln-D-Arg-OH (Dnp-PQGIAGQ[dR]-OH; SMILES CC[C@H](C)[C@H](NC(=O)CNC(=O)[C@H](CCC(N)=O)NC(=O)[C@@H]1CCCN1c1ccc([N+](=O)[O-])cc1[N+](=O)[O-])C(=O)N[C@@H](C)C(=O)NCC(=O)N[C@@H](CCC(N)=O)C(=O)N[C@H](CCCNC(=N)N)C(=O)O) [commercially available synthetic collagenase substrate, Peninsula Laboratories; DNP=Dinitrophenyl]	5		
CCOC(=O)CNC(=O)[C@H](CC(C)C)NC(=O)[C@H](CC(C)C)SC(=O)CNC(=O)[C@H](CC(C)C)NC(=O)[C@@H]1CCCN1C(C)=O [Ac-Pro-Leu-Gly-S-Leu-Leu-Gly-OC2 H5]		8800	Relative Rate [3]: 0.03; Relative Rate [4]: 4.3; Relative Rate [5]: 12; Relative Rate [6]: 0.07; Relative Rate [7]: 2.0; Relative Rate ([2]; Table II Enzyme Selectivity, Vertebrate Collagenase, same as in Example 14): 260
CCOC(=O)CNC(=O)[C@H](CC(C)C)NC(=O)[C@@H](S)CC(C)C [HS-Leu-Leu-Gly-OC2 H5]			pIC50 [8]: 6.00
CCOC(=O)CNC(=O)[C@H](C)NC(=O)[C@H](CC(C)C)NC(=O)CNC(=O)[C@H](CC(C)C)NC(=O)[C@@H]1CCCN1C(C)=O [Ac--Pro--Leu--Gly--Leu--Ala--Gly--OC2 H5] (Ac-PLGLAG-OEt)	110		
CCOC(=O)CNC(=O)[C@H](Cc1ccccc1)NC(=O)[C@H](CC(C)C)SC(=O)CNC(=O)[C@H](C)NC(=O)[C@@H]1CCCN1C(C)=O [Ac-Pro-Ala-Gly-S-Leu-Phe-Gly-OC2 H5]		2800	
CCOC(=O)CNC(=O)[C@H](Cc1ccccc1)NC(=O)[C@H](CC(C)C)SC(=O)CNC(=O)[C@H](CC(C)C)NC(=O)[C@@H]1CCCN1C(C)=O [Ac-Pro-Leu-Gly-S-Leu-Phe-Gly-OC2 H5]		5900	
